Source: publication PMC8359378 (British Journal of Clinical Pharmacology, 2021)
Marks after values point to notes of the source that are not given here.

Experiments:
[1] = tested on: monkey arteriovenous shunt model; settings: preclinical; cited from earlier work
human FXIa = settings: competitive and reversible inhibition; cited from earlier work
[2] = plasma pharmacokinetics in first‐in‐human study; format: in vivo; settings: for Tmax: human, plasma
healthy subjects = assay: safety and tolerability; format: in vivo, human; settings: Part A

- time of peak mean plasma concentration post‐dose ([2]; Part A, 80 mg fed cohort): approximately 8 hours
- fold increase of AUCinf with a 300‐fold increase in dose ([2]; Part A, 1–300 mg): ~416 fold
- fold increase of Cmax with a 300‐fold increase in dose ([2]; Part A, 1–300 mg): about 308 fold
- time of peak mean plasma concentration post‐dose ([2]; Part A, each cohort except 80 mg fed): approximately 4 hours
- AUC24 accumulation GM ratio Day 14 versus Day 1 ([2]; Part B, 80 mg QD): 2.33
- Cmax accumulation GM ratio Day 14 versus Day 1 ([2]; Part B, 80 mg QD): 1.88
- AUC24 accumulation GM ratio Day 14 versus Day 1 ([2]; Part B, 150 mg QD): 2.22
- Cmax accumulation GM ratio Day 14 versus Day 1 ([2]; Part B, 150 mg QD): 1.90
- AUC24 accumulation GM ratio Day 14 versus Day 1 ([2]; Part B, 250 mg QD): 2.41
- Cmax accumulation GM ratio Day 14 versus Day 1 ([2]; Part B, 250 mg QD): 2.09
- fold increase of AUC24 with a 3.1‐fold increase in dose ([2]; Part B, 80–250 mg QD, Day 14): approximately 3.6 fold
- fold increase of Cmax with a 3.1‐fold increase in dose ([2]; Part B, 80–250 mg QD, Day 14): approximately 3.6 fold
- time for plasma concentrations to decrease to baseline levels ([2]; Part B, after final dose on Day 14): ≤ 72 h
- time to reach steady state ([2]; Part B, daily dosing): ≤ 6 days
- Tmax ([2]; oral, median range across cohorts, Part A, fasted cohorts): 2.5 to 4 h
- Tmax ([2]; oral, median range across cohorts, Part B, Day 1): 2.5 to 4 h
- Tmax ([2]; oral, median range across cohorts, Part B, Day 14): 4 to 4.01 h
- Tmax ([2]; po, 1 mg, median (range), Part A, single dose 1 mg, fasted): 2.5 h
- Tmax ([2]; po, 5 mg, median (range), Part A, single dose 5 mg, fasted): 3.5 h
- Tmax ([2]; po, 80 mg, median (range), Part A, single dose 80 mg, fed): 7.05 h
- Tmax ([2]; po, 80 mg, median (range), Part B, 80 mg QD fed, Day 1): 2.5 h
- Tmax ([2]; po, 80 mg, median (range), Part B, 80 mg QD fed, Day 14): 4.01 h
- Tmax ([2]; po, 150 mg, median (range), Part B, 150 mg QD fed, Day 1): 4 h
- Tmax ([2]; po, 150 mg, median (range), Part B, 150 mg QD fed, Day 14): 4.01 h
- Tmax ([2]; po, 250 mg, median (range), Part B, 250 mg QD fed, Day 1): 4 h
- Tmax ([2]; po, 250 mg, median (range), Part B, 250 mg QD fed, Day 14): 4 h
SMILES: Nc1ccc(-c2nc([C@H]3CCc4cc(-c5cc(Cl)ccc5-n5cnnn5)cc(=O)n43)c(F)[nH]2)c(F)n1 [ONO‐7684]
- thrombus formation [1]: significantly inhibited thrombus formation
- Ki (human FXIa): 2 nM
- treatment‐related TEAE of lethargy (mild), subjects (healthy subjects; 5 mg group): 16.7%
- treatment‐related TEAE of headache (moderate), subjects (healthy subjects; 300 mg group): 16.7%
- Abdominal pain upper TEAE, subjects (healthy subjects; single dose 1 mg, fasted): 0 n (%)
- All TEAEs, subjects (healthy subjects; single dose 1 mg, fasted): 0 n (%)
- Dizziness TEAE, subjects (healthy subjects; single dose 1 mg, fasted): 0 n (%)
- Gonorrhoea TEAE, subjects (healthy subjects; single dose 1 mg, fasted): 0 n (%)
- Headache TEAE, subjects (healthy subjects; single dose 1 mg, fasted): 0 n (%)
- Lethargy TEAE, subjects (healthy subjects; single dose 1 mg, fasted): 0 n (%)
- Nasopharyngitis TEAE, subjects (healthy subjects; single dose 1 mg, fasted): 0 n (%)
- Nausea TEAE, subjects (healthy subjects; single dose 1 mg, fasted): 0 n (%)
- Pain TEAE, subjects (healthy subjects; single dose 1 mg, fasted): 0 n (%)
- Skin laceration TEAE, subjects (healthy subjects; single dose 1 mg, fasted): 0 n (%)
- Thrombocytopenia TEAE, subjects (healthy subjects; single dose 1 mg, fasted): 0 n (%)
- Abdominal pain upper TEAE, subjects (healthy subjects; single dose 5 mg, fasted): 0 n (%)
- All TEAEs, subjects (healthy subjects; single dose 5 mg, fasted): 1 (16.7) n (%)
- Dizziness TEAE, subjects (healthy subjects; single dose 5 mg, fasted): 0 n (%)
- Gonorrhoea TEAE, subjects (healthy subjects; single dose 5 mg, fasted): 0 n (%)
- Headache TEAE, subjects (healthy subjects; single dose 5 mg, fasted): 0 n (%)
- Lethargy TEAE, subjects (healthy subjects; single dose 5 mg, fasted): 1 (16.7)^b n (%)
- Nasopharyngitis TEAE, subjects (healthy subjects; single dose 5 mg, fasted): 1 (16.7) n (%)
- Nausea TEAE, subjects (healthy subjects; single dose 5 mg, fasted): 0 n (%)
- Pain TEAE, subjects (healthy subjects; single dose 5 mg, fasted): 0 n (%)
- Skin laceration TEAE, subjects (healthy subjects; single dose 5 mg, fasted): 0 n (%)
- Thrombocytopenia TEAE, subjects (healthy subjects; single dose 5 mg, fasted): 0 n (%)
- Abdominal pain upper TEAE, subjects (healthy subjects; single dose 20 mg, fasted): 1 (16.7) n (%)
- All TEAEs, subjects (healthy subjects; single dose 20 mg, fasted): 1 (16.7) n (%)
- Dizziness TEAE, subjects (healthy subjects; single dose 20 mg, fasted): 1 (16.7) n (%)
- Gonorrhoea TEAE, subjects (healthy subjects; single dose 20 mg, fasted): 0 n (%)
- Headache TEAE, subjects (healthy subjects; single dose 20 mg, fasted): 0 n (%)
- Lethargy TEAE, subjects (healthy subjects; single dose 20 mg, fasted): 0 n (%)
- Nasopharyngitis TEAE, subjects (healthy subjects; single dose 20 mg, fasted): 0 n (%)
- Nausea TEAE, subjects (healthy subjects; single dose 20 mg, fasted): 1 (16.7) n (%)
- Pain TEAE, subjects (healthy subjects; single dose 20 mg, fasted): 0 n (%)
- Skin laceration TEAE, subjects (healthy subjects; single dose 20 mg, fasted): 0 n (%)
- Thrombocytopenia TEAE, subjects (healthy subjects; single dose 20 mg, fasted): 0 n (%)
- Abdominal pain upper TEAE, subjects (healthy subjects; single dose 80 mg, fasted): 0 n (%)
- All TEAEs, subjects (healthy subjects; single dose 80 mg, fasted): 2 (33.3) n (%)
- Dizziness TEAE, subjects (healthy subjects; single dose 80 mg, fasted): 0 n (%)
- Gonorrhoea TEAE, subjects (healthy subjects; single dose 80 mg, fasted): 1 (16.7) n (%)
- Headache TEAE, subjects (healthy subjects; single dose 80 mg, fasted): 1 (16.7) n (%)
- Lethargy TEAE, subjects (healthy subjects; single dose 80 mg, fasted): 0 n (%)
- Nasopharyngitis TEAE, subjects (healthy subjects; single dose 80 mg, fasted): 0 n (%)
- Nausea TEAE, subjects (healthy subjects; single dose 80 mg, fasted): 0 n (%)
- Pain TEAE, subjects (healthy subjects; single dose 80 mg, fasted): 0 n (%)
- Skin laceration TEAE, subjects (healthy subjects; single dose 80 mg, fasted): 0 n (%)
- Thrombocytopenia TEAE, subjects (healthy subjects; single dose 80 mg, fasted): 0 n (%)
- Abdominal pain upper TEAE, subjects (healthy subjects; single dose 80 mg, fed): 0 n (%)
- All TEAEs, subjects (healthy subjects; single dose 80 mg, fed): 1 (16.7) n (%)
- Dizziness TEAE, subjects (healthy subjects; single dose 80 mg, fed): 0 n (%)
- Gonorrhoea TEAE, subjects (healthy subjects; single dose 80 mg, fed): 0 n (%)
- Headache TEAE, subjects (healthy subjects; single dose 80 mg, fed): 1 (16.7) n (%)
- Lethargy TEAE, subjects (healthy subjects; single dose 80 mg, fed): 0 n (%)
- Nasopharyngitis TEAE, subjects (healthy subjects; single dose 80 mg, fed): 0 n (%)
- Nausea TEAE, subjects (healthy subjects; single dose 80 mg, fed): 0 n (%)
- Pain TEAE, subjects (healthy subjects; single dose 80 mg, fed): 0 n (%)
